From patent US5536847A, “4-desoxy-4-epipodophyllotoxin derivative or pharmaceutically acceptable salt thereof” (Taiho Pharmaceutical Co. Ltd., priority 1991, dated 1996)
Where two headings read alike, the source gives them in different places.

Experiments:
[1] = system: P388 mouse leukemia cell line; assay: Cytocidal effect on P388 mouse leukemia cells (crystal violet cytometry); format: cell-based; details: read-out: ED50 (concentration causing a 50% decrease in cell count as compared with the control)
Procedure: A 96-well plate was inoculated with 1×10^3 cells/well of P388 mouse leukemia cell line and incubated for 24 hours. The test compound was dissolved in dimethylformamide and the solution was diluted with medium to various concentrations and added to respective wells. The plate was further incubated for 3 days, after which it was fixed with glutaraldehyde and stained with crystal violet for cytometry. The cytocidal effect of each compound was expressed as the concentration causing a 50% decrease in cell count (ED50) as compared with the control.

[2] = system: L1210 mouse leukemia cell line; assay: Life-prolonging effect in CDF1 mice intraperitoneally transplanted with L1210 leukemia; format: in vivo; details: 5 days, L1210, male CDF1 mice, vs vehicle group
Procedure: L1210 mouse leukemia cell line, 1×10^5 cells/mouse, was intraperitoneally transplanted into 7-weeks-old male CDF1 mice (6 per group). The test compound, in the varying amounts shown below in Table 4, was dissolved in physiological saline containing 3.5% of dimethyl sulfoxide and 6.5% of Tween 80 and the solution was intraperitoneally administered for 5 days following the transplantation of cells for a total of 5 times. The percent life-prolonging effect of the compound was determined by comparison with a group given physiological saline containing 3.5% of dimethyl sulfoxide and 6.5% of Tween 80 only.

[3] = background art statement; cited from earlier work
[4] = 72 h, P388 mouse leukemia cells, 1×10^3 cells/well, 3 days incubation with compound

SMILES	IC50 ([1]; Mus musculus, P388, 72 h) [nM]	further results
COc1cc(C2c3cc4c(cc3C(CCN(C)N3CCN(C)CC3)C3COC(=O)C23)OCO4)cc(OC)c1O (stereo not drawn) [Compound 53]	4.3	
COc1cc(C2c3cc4c(cc3C(CCN3CCOCC3)C3COC(=O)C23)OCO4)cc(OC)c1O (stereo not drawn) [Compound 36]		Life-prolonging effect ([2]; 10 mg/kg/day i.p.): 81%
COc1cc(C2c3cc4c(cc3C(CC=O)C3COC(=O)C23)OCO4)cc(OC)c1OC(=O)OCc1ccccc1 (stereo not drawn) [Compound 3, 4-desoxy-4'-demethyl-4'-O-benzyloxycarbonyl-4-formylmethyl-4-epipodophyllotoxin]	450	
COc1cc(C2c3cc4c(cc3C(CCN(C)CCN3CCCCC3)C3COC(=O)C23)OCO4)cc(OC)c1O (stereo not drawn) [Compound 43]	4.1	Life-prolonging effect ([2]; 5 mg/kg/day i.p.): 257%
COc1cc(C2c3cc4c(cc3C(CCN3CCC(N5CCCCC5)CC3)C3COC(=O)C23)OCO4)cc(OC)c1O (stereo not drawn) [Compound 45]	3.3	Life-prolonging effect ([2]; 2.5 mg/kg/day i.p.): 231%
COc1cc([C@@H]2c3cc4c(cc3[C@@H](O[C@@H]3O[C@@H]5CO[C@@H](C)O[C@H]5[C@H](O)[C@H]3O)[C@H]3COC(=O)[C@H]23)OCO4)cc(OC)c1O [etoposide]		serious adverse reactions [3]: may cause serious adverse reactions including leukopenia, thrombopenia, alopecia, nausea and vomiting
CCCCCCN(C)CCC1c2cc3c(cc2C(c2cc(OC)c(O)c(OC)c2)C2C(=O)OCC12)OCO3 (stereo not drawn) [Compound 38]	19	
COc1cc([C@@H]2c3cc4c(cc3[C@@H](O[C@@H]3O[C@@H]5CO[C@@H](c6cccs6)O[C@H]5[C@H](O)[C@H]3O)[C@H]3COC(=O)[C@H]23)OCO4)cc(OC)c1O [teniposide]		serious adverse reactions [3]: may cause serious adverse reactions including leukopenia, thrombopenia, alopecia, nausea and vomiting
CCN(CC)CCN(C)CCC1c2cc3c(cc2C(c2cc(OC)c(O)c(OC)c2)C2C(=O)OCC12)OCO3 (stereo not drawn) [Compound 47]		IC50 [1, 4]: 6.3 nM
COc1cc(C2c3cc4c(cc3C(CCN(C)N(C)C)C3COC(=O)C23)OCO4)cc(OC)c1O (stereo not drawn) [Compound 33]	20	
COc1cc(C2c3cc4c(cc3C(CCN3CCN(C)CC3)C3COC(=O)C23)OCO4)cc(OC)c1O (stereo not drawn) [Compound 34]	3	
COc1cc(C2c3cc4c(cc3C(CC=O)C3COC(=O)C23)OCO4)cc(OC)c1O (stereo not drawn) [Compound 5, 4-desoxy-4'-demethyl-4-formylmethyl-4-epipodophyllotoxin]	120	
COc1cc(C2c3cc4c(cc3C(CCN(C)CCN(C)C)C3COC(=O)C23)OCO4)cc(OC)c1O (stereo not drawn) [Compound 35]		IC50 [1, 4]: 1 nM
COc1cc(C2c3cc4c(cc3C(CCCN(C)C)C3COC(=O)C23)OCO4)cc(OC)c1O (stereo not drawn) [Compound 28, 4-desoxy-4'-demethyl-4-(3-N,N-dimethylamino-1-propyl)-4-epipodophyllotoxin]	12	
COc1cc(C2c3cc4c(cc3C(CCNCCN(C)C)C3COC(=O)C23)OCO4)cc(OC)c1O (stereo not drawn) [Compound 52]	40	
COc1cc(C2c3cc4c(cc3C(CCN3CCCCC3)C3COC(=O)C23)OCO4)cc(OC)c1O (stereo not drawn) [Compound 44]	12	
